# Laboratory results published in ChEMBL document CHEMBL1201862, “PubChem BioAssay data set” (2004).
#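 96-well plates; 48 h exposure; 5 concentrations. Endpoints by linear interpolation between flanking doses. Not reached: highest tested concentration assigned. GI50 = concentration required for 50% inhibition of growth.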 Active and inactive are the calls of the source. Cut-off read from the data, not from the text of the source: active = GI50 up to about 1.1 µM and inactive = higher.
# Assays:
# Assay in all cases: inhibition of tumour cell growth, NCI panel, 48 h
# [1] = test system: HL-60
# [2] = test system: HT-29
# [3] = test system: OVCAR-3
# [4] = test system: LOX IMVI
# [5] = test system: HCT-116
# [6] = test system: NCI/ADR-RES
# [7] = test system: OVCAR-4
# [8] = test system: SF-295
# [9] = test system: MDA-MB-231
# [10] = test system: T47D
# [11] = test system: SNB-75
# [12] = test system: HOP-62
# [13] = test system: A498
# [14] = test system: CAKI-1
# [15] = test system: HOP-92
# [16] = test system: 786-0
# [17] = test system: MDA-MB-435
# [18] = test system: UACC-62
# [19] = test system: NCI-H226
# [20] = test system: NCI-H23
# [21] = test system: Malme-3M
# [22] = test system: SNB-19
# [23] = test system: ACHN
# [24] = test system: SK-MEL-28
# [25] = test system: NCI-H460
# [26] = test system: A549
# [27] = test system: NCI-H522
# [28] = test system: BT-549
# [29] = test system: SN12C
# [30] = test system: SR
# [31] = test system: KM12
# [32] = test system: TK-10
# [33] = test system: MDA-N
# [34] = test system: EKVX
# [35] = test system: OVCAR-8
# [36] = test system: MCF7
# [37] = test system: MOLT-4
# [38] = test system: RXF 393
# [39] = test system: K562
# [40] = test system: UACC-257
# [41] = test system: DU-145
# [42] = test system: HCC 2998
# [43] = test system: CCRF-CEM
# [44] = test system: IGROV-1
# [45] = test system: HCT-15
# [46] = test system: UO-31
# [47] = test system: OVCAR-5
# [48] = test system: PC-3
# [49] = test system: SF-539
# [50] = test system: RPMI-8226
# [51] = test system: SW-620
# [52] = test system: M14
# [53] = test system: SK-OV-3
# [54] = test system: U-251
# [55] = test system: Hs-578T
# [56] = test system: COLO 205
# [57] = test system: SF-268
# [58] = test system: SK-MEL-5
# [59] = test system: SK-MEL-2
smiles,measurement,setting,value
Cc1ccc(S(=O)(=O)N2CCN(S(=O)(=O)c3ccc(C)cc3)CCN(S(=O)(=O)c3ccc(C)cc3)Cc3cc(Br)c(Br)cc3CN(S(=O)(=O)c3ccc(C)cc3)CC2)cc1,GI50,[1],> 100 µM (inactive)
same,GI50,[2],> 100 µM (inactive)
same,GI50,[3],> 100 µM (inactive)
same,GI50,[4],79.4 µM (inactive)
same,GI50,[5],> 100 µM (inactive)
same,GI50,[6],> 100 µM (inactive)
same,GI50,[7],44.1 µM (inactive)
same,GI50,[8],> 100 µM (inactive)
same,GI50,[9],23.3 µM (inactive)
same,GI50,[10],> 100 µM (inactive)
same,GI50,[11],55.6 µM (inactive)
same,GI50,[12],> 100 µM (inactive)
same,GI50,[13],> 100 µM (inactive)
same,GI50,[14],> 100 µM (inactive)
same,GI50,[15],23.6 µM (inactive)
same,GI50,[16],> 100 µM (inactive)
same,GI50,[17],> 100 µM (inactive)
same,GI50,[18],> 100 µM (inactive)
same,GI50,[19],46.6 µM (inactive)
same,GI50,[20],> 100 µM (inactive)
same,GI50,[21],44.9 µM (inactive)
same,GI50,[22],43.5 µM (inactive)
same,GI50,[23],> 100 µM (inactive)
same,GI50,[24],> 100 µM (inactive)
same,GI50,[25],> 100 µM (inactive)
same,GI50,[26],> 100 µM (inactive)
same,GI50,[27],52 µM (inactive)
same,GI50,[28],> 100 µM (inactive)
same,GI50,[29],> 100 µM (inactive)
same,GI50,[30],> 100 µM (inactive)
same,GI50,[31],97.7 µM (inactive)
same,GI50,[32],69.5 µM (inactive)
same,GI50,[33],66.8 µM (inactive)
same,GI50,[34],68.2 µM (inactive)
same,GI50,[35],> 100 µM (inactive)
same,GI50,[36],> 100 µM (inactive)
same,GI50,[37],> 100 µM (inactive)
same,GI50,[38],> 100 µM (inactive)
same,GI50,[39],> 100 µM (inactive)
same,GI50,[40],37.2 µM (inactive)
same,GI50,[41],> 100 µM (inactive)
same,GI50,[42],> 100 µM (inactive)
same,GI50,[43],> 100 µM (inactive)
same,GI50,[44],85.5 µM (inactive)
same,GI50,[45],> 100 µM
same,GI50,[46],> 100 µM (inactive)
same,GI50,[47],92.3 µM (inactive)
same,GI50,[48],46.9 µM (inactive)
same,GI50,[49],> 100 µM (inactive)
same,GI50,[50],> 100 µM (inactive)
same,GI50,[51],97.7 µM (inactive)
same,GI50,[52],19.1 µM (inactive)
same,GI50,[53],> 100 µM (inactive)
same,GI50,[54],82 µM (inactive)
same,GI50,[55],> 100 µM (inactive)
same,GI50,[56],> 100 µM (inactive)
same,GI50,[57],> 100 µM (inactive)
same,GI50,[58],> 100 µM (inactive)
CN(C)C(Cc1c[nH]cn1)C(=O)N1CCCC1C(N)=O (stereo not drawn),GI50,[1],> 100 µM (inactive)
same,GI50,[2],> 100 µM (inactive)
same,GI50,[3],> 100 µM (inactive)
same,GI50,[4],> 100 µM (inactive)
same,GI50,[5],> 100 µM (inactive)
same,GI50,[6],> 100 µM (inactive)
same,GI50,[7],> 100 µM (inactive)
same,GI50,[8],> 100 µM (inactive)
same,GI50,[9],> 100 µM (inactive)
same,GI50,[10],> 100 µM (inactive)
same,GI50,[11],> 100 µM (inactive)
same,GI50,[12],> 100 µM (inactive)
same,GI50,[13],22.9 µM (inactive)
same,GI50,[14],> 100 µM (inactive)
same,GI50,[15],> 100 µM (inactive)
same,GI50,[16],> 100 µM (inactive)
same,GI50,[17],> 100 µM (inactive)
same,GI50,[18],> 100 µM (inactive)
same,GI50,[19],> 100 µM (inactive)
same,GI50,[20],> 100 µM (inactive)
same,GI50,[21],> 100 µM (inactive)
same,GI50,[22],> 100 µM (inactive)
same,GI50,[23],> 100 µM (inactive)
same,GI50,[24],> 100 µM (inactive)
same,GI50,[25],> 100 µM (inactive)
same,GI50,[26],> 100 µM (inactive)
same,GI50,[27],> 100 µM (inactive)
same,GI50,[28],> 100 µM (inactive)
same,GI50,[29],> 100 µM (inactive)
same,GI50,[30],> 100 µM (inactive)
same,GI50,[31],> 100 µM (inactive)
same,GI50,[32],> 100 µM (inactive)
same,GI50,[33],> 100 µM (inactive)
same,GI50,[34],> 100 µM (inactive)
same,GI50,[35],> 100 µM (inactive)
same,GI50,[36],> 100 µM (inactive)
same,GI50,[37],> 100 µM (inactive)
same,GI50,[38],> 100 µM (inactive)
same,GI50,[39],> 100 µM (inactive)
same,GI50,[41],> 100 µM (inactive)
same,GI50,[42],> 100 µM (inactive)
same,GI50,[43],> 100 µM (inactive)
same,GI50,[44],> 100 µM (inactive)
same,GI50,[45],> 100 µM
same,GI50,[46],> 100 µM (inactive)
same,GI50,[47],> 100 µM (inactive)
same,GI50,[48],> 100 µM (inactive)
same,GI50,[50],> 100 µM (inactive)
same,GI50,[51],> 100 µM (inactive)
same,GI50,[52],> 100 µM (inactive)
same,GI50,[53],> 100 µM (inactive)
same,GI50,[54],> 100 µM (inactive)
same,GI50,[55],> 100 µM (inactive)
same,GI50,[56],> 100 µM (inactive)
same,GI50,[57],> 100 µM (inactive)
same,GI50,[58],> 100 µM (inactive)
CC(=S)NC=C(C(N)=O)C(N)=O,GI50,[1],> 100 µM (inactive)
same,GI50,[2],> 100 µM (inactive)
same,GI50,[3],> 100 µM (inactive)
same,GI50,[4],> 100 µM (inactive)
same,GI50,[5],> 100 µM (inactive)
same,GI50,[6],> 100 µM (inactive)
same,GI50,[8],> 100 µM (inactive)
same,GI50,[9],> 100 µM (inactive)
same,GI50,[10],> 100 µM (inactive)
same,GI50,[11],> 100 µM (inactive)
same,GI50,[12],> 100 µM (inactive)
same,GI50,[13],> 100 µM (inactive)
same,GI50,[14],> 100 µM (inactive)
same,GI50,[59],> 100 µM (inactive)
same,GI50,[15],3.26 µM (inactive)
same,GI50,[16],> 100 µM (inactive)
same,GI50,[17],> 100 µM (inactive)
same,GI50,[18],> 100 µM (inactive)
same,GI50,[19],> 100 µM (inactive)
same,GI50,[20],> 100 µM (inactive)
same,GI50,[21],> 100 µM (inactive)
same,GI50,[23],> 100 µM (inactive)
same,GI50,[24],> 100 µM (inactive)
same,GI50,[26],> 100 µM (inactive)
same,GI50,[27],> 100 µM (inactive)
same,GI50,[28],> 100 µM (inactive)
same,GI50,[29],> 100 µM (inactive)
same,GI50,[30],> 100 µM (inactive)
same,GI50,[31],> 100 µM (inactive)
same,GI50,[33],> 100 µM (inactive)
same,GI50,[34],> 100 µM (inactive)
same,GI50,[35],> 100 µM (inactive)
same,GI50,[36],> 100 µM (inactive)
same,GI50,[37],> 100 µM (inactive)
same,GI50,[38],> 100 µM (inactive)
same,GI50,[39],> 100 µM (inactive)
same,GI50,[40],> 100 µM (inactive)
same,GI50,[41],> 100 µM (inactive)
same,GI50,[42],> 100 µM (inactive)
same,GI50,[43],> 100 µM (inactive)
same,GI50,[44],> 100 µM (inactive)
same,GI50,[45],> 100 µM
same,GI50,[47],> 100 µM (inactive)
same,GI50,[48],> 100 µM (inactive)
same,GI50,[49],> 100 µM (inactive)
same,GI50,[50],> 100 µM (inactive)
same,GI50,[51],> 100 µM (inactive)
same,GI50,[52],> 100 µM (inactive)
same,GI50,[53],> 100 µM (inactive)
same,GI50,[54],> 100 µM (inactive)
same,GI50,[55],> 100 µM (inactive)
same,GI50,[56],> 100 µM (inactive)
same,GI50,[57],> 100 µM (inactive)
same,GI50,[58],> 100 µM (inactive)
